≈ marks a conversion by molar mass, not a printed value.
Columns and labels:
[1] = test system: Artemia; test: Toxicity against brine shrimp larvae; type: organism-based; conditions: in vivo
[2] = test system: Human alphaherpesvirus 1; test: Antiviral activity against HSV1; type: functional, organism-based
[3] = test system: Human alphaherpesvirus 2; test: Antiviral activity against HSV2; type: functional, organism-based
[4] = test system: Enterovirus C; test: Antiviral activity against Poliovirus; type: functional, organism-based

With `Cc1ccc(O)cc1CC[C@@H]1[C@H](O)CC[C@]2(C)[C@@H]([C@H](C)CCCC(C)C)CC[C@@H]12` [ASTROGORGIADIOL] the LD50 [1] was greater than 100 ppm.
Molecule `Cc1ccc(O)cc1CC[C@@H]1C(=O)CC[C@]2(C)[C@@H]([C@H](C)/C=C/CC(C)C)CC[C@@H]12` [CALICOFEROL A] has an LD50 [1] of 1.8 ppm.
`Cc1ccc(O)cc1CC[C@@H]1[C@H](O)CC[C@]2(C)[C@@H]([C@H](C)CCCC(C)C)[C@@H](O)C[C@@H]12` [CALICOFEROL B] was tested, and the LD50 [1] was 2.3 ppm.
`C=C(CC[C@@H](C)[C@H]1CC[C@H]2[C@H](CCc3cc(O)ccc3C)[C@H](O)CC[C@]12C)C(C)C` [CALICOFEROL C] gave an LD50 [1] greater than 100 ppm.
With `Cc1ccc(O)cc1CC[C@@H]1C(=O)CC[C@]2(C)[C@@H]([C@H](C)/C=C/C(C)C(C)C)CC[C@@H]12` (some centres undefined) [CALICOFEROL D] the LD50 [1] was 37 ppm, the EC50 [2] was 1.2 µg/mL (≈ 2.92 µM) and the EC50 [3] was 1.2 µg/mL (≈ 2.92 µM). The EC50 [4] was 0.4 µg/mL (≈ 0.974 µM).
`Cc1ccc(O)cc1CC[C@@H]1C(=O)CC[C@]2(C)[C@@H]([C@H](C)CCCC(C)C)CC[C@@H]12` [CALICOFEROL E] was tested, and the LD50 [1] was greater than 100 ppm.

— ChEMBL document CHEMBL1159286, “New secosteroids from an undescribed gorgonian of the genus Muricella” (J Nat Prod, 1995)
